Article PMC7571175, “N-Benzyl Residues as the P1′ Substituents in Phosphorus-Containing Extended Transition State Analog Inhibitors of Metalloaminopeptidases” (Molecules, 2020)
Where two headings read alike, the source gives them in different places.

Assays:
[1] = molecular target: T1, microsomal alanyl aminopeptidase from porcine kidney (SsAPN) (Sus scrofa, UniProt P15145); test: Inhibition of porcine kidney alanyl aminopeptidase (enzyme kinetics); format: biochemical; conditions: porcine APN; compounds assayed as racemic mixtures
T1 construct: Microsomal alanyl aminopeptidase from porcine kidney (SsAPN) was purchased from Sigma-Aldrich; purchased Sigma-Aldrich (Poznań, Poland); host or cells: porcine kidney
T1 sequence (P15145 1-963): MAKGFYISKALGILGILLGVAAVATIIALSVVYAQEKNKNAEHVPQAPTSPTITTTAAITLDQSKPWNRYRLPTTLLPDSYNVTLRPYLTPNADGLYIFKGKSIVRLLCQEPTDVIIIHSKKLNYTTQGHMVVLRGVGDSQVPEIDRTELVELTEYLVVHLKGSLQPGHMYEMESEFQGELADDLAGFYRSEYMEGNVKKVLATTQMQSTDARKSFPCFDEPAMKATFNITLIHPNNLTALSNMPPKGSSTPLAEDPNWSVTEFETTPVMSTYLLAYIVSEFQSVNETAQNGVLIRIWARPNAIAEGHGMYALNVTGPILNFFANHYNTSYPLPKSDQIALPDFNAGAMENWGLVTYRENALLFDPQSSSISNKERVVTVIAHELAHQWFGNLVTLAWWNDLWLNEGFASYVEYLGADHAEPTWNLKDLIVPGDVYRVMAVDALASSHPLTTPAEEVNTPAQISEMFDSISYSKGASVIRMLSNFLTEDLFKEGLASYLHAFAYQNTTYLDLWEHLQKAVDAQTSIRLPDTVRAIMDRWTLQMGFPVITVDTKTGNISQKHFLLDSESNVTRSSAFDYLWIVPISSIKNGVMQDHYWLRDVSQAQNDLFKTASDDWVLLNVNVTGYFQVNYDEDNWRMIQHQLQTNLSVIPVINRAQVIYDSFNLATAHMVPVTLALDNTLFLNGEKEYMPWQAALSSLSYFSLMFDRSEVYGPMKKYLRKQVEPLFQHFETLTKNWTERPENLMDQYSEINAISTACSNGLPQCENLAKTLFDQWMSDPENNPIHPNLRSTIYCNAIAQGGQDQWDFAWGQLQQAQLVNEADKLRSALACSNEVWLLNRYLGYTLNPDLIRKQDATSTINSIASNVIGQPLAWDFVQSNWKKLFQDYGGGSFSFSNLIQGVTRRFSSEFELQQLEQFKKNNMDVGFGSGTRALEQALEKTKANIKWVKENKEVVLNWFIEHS
Excerpt: (§1) Chemical and biochemical materials were purchased from Sigma-Aldrich (Poznań, Poland) and Avantor Performance Materials (Gliwice, Poland), and were used without further purification. Fluorogenic substrate Ala-AMC (L-alanine-4-methylcoumaryl-7-amide) was purchased from PeptaNova (Sandhausen, Germany). Microsomal alanyl aminopeptidase from porcine kidney (SsAPN) was purchased from Sigma-Aldrich (Poznań, Poland), and recombinant human alanine aminopeptidase (HsAPN) from R&D System (Minneapolis, MN, USA). Leucine aminopeptidase from porcine kidney (SsLAP) and barley seeds (HvLAP) were isolated and purified according to the procedures described previously. ^1H, ^13C, and ^31P NMR spectra were recorded on a 400YH (JEOL, Tokyo, Japan) spectrometer at 295 K. Mass spectra analyses were performed on a spectrometer LC-MS QDa (Waters e2695, 2489 UV/Vis Detector, Acquity QDa detector). HRMS spectra were registered using a Waters LCT Premier XE mass spectrometer (electrospray ionization, ESI) (Waters, Milford, MA, USA). The progress of the enzymatic reactions was monitored spectrophotometrically (UV-VIS Spectrophotometer, JASCO V-730) by following the change in absorbance at 405 nm (formation of p-nitroaniline), or by measuring fluorescence with a spectrofluorometer SpectraMax Gemini EM (Molecular Devices, San Jose, CA, USA) operating at two wavelengths: excitation 355 nm and emission 460 nm (for AMC).
(§2) The current studies followed the methodologies of the enzyme kinetic experiments, with calculation of the inhibition constants, and the mechanism of inhibition, which are presented in detail in our previous papers: For microsomal alanyl aminopeptidase from porcine kidney, recombinant human alanine aminopeptidase, leucine aminopeptidase from porcine kidney, and leucine aminopeptidase from barley seeds ([…]).

[2] = molecular target: T2, recombinant human alanine aminopeptidase (HsAPN) (Homo sapiens, UniProt P15144); test: Inhibition of recombinant human alanine aminopeptidase (enzyme kinetics); format: biochemical; conditions: for Ki: human APN; for Activity for human APN (in words): summary statement
T2 construct: purchased R&D System (Minneapolis, MN, USA)
T2 sequence (P15144 whole entry): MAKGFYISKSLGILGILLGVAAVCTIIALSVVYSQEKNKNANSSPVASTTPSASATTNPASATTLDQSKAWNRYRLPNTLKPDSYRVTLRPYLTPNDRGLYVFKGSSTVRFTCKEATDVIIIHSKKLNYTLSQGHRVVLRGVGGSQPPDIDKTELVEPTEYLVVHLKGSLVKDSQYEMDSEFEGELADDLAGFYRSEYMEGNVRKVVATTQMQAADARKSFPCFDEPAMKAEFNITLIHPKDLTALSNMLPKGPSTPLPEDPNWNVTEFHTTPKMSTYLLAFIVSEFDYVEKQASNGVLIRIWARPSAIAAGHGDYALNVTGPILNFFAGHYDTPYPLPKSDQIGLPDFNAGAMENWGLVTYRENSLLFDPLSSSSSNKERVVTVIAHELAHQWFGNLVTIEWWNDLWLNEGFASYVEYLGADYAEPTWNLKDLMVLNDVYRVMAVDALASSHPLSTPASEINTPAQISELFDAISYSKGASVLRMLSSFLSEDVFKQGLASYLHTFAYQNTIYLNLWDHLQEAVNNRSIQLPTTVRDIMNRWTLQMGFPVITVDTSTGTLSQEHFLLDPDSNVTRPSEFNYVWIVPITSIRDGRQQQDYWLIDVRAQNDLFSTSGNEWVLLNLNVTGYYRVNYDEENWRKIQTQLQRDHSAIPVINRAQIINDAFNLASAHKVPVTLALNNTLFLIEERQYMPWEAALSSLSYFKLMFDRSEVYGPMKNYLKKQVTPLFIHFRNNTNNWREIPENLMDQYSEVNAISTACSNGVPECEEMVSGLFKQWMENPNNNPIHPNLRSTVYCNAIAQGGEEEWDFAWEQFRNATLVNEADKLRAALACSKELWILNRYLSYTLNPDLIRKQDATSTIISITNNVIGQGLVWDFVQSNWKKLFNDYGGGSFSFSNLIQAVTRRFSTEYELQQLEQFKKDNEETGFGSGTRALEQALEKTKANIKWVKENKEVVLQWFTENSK
Excerpt: as §1, §2

[3] = molecular target: T3, leucine aminopeptidase from porcine kidney (SsLAP) (Sus scrofa, UniProt P28839); test: Inhibition of porcine kidney leucine aminopeptidase (enzyme kinetics); format: biochemical; conditions: porcine kidney LAP; compounds assayed as racemic mixtures
T3 construct: Leucine aminopeptidase from porcine kidney (SsLAP) [26] and barley seeds (HvLAP) [21] were isolated and purified; from tissue; host or cells: porcine kidney
T3 sequence (P28839 1-519): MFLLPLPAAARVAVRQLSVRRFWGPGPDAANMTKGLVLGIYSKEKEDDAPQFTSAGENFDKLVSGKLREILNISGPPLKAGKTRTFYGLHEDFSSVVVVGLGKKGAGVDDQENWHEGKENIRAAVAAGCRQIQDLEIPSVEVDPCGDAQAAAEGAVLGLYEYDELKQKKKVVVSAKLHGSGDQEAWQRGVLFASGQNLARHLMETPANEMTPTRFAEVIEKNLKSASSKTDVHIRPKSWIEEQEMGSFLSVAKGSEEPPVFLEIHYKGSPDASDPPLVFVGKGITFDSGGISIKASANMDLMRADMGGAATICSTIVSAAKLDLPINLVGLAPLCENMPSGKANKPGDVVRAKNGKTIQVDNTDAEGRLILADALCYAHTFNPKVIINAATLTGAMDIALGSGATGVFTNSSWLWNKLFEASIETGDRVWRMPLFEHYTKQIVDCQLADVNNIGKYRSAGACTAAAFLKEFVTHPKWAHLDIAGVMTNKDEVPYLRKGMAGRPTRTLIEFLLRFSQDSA
Excerpt: as §1, §2

thermolysin = conditions: competitive tight-binding inhibitor; cited from earlier work
[4] = molecular target: T1, microsomal alanyl aminopeptidase from porcine kidney (SsAPN); design: method as in doi:10.1016/j.tetlet.2011.04.037; conditions: porcine APN; reference compound, reported previously; cited from earlier work
[5] = molecular target: T3, leucine aminopeptidase from porcine kidney (SsLAP); design: method as in doi:10.1016/j.tetlet.2011.04.037; conditions: porcine kidney LAP; reference compound, reported previously; cited from earlier work
[6] = compounds assayed as racemic mixtures, read-out: Ki HsAPN

## NC(CCc1ccccc1)P(=O)(O)CN(CC(=O)O)Cc1ccc(Cl)cc1Cl (stereo not drawn) [6a, N-{[1-Amino-3-phenylpropyl(hydroxy)phosphoryl]methyl}-N-2,4-dichlorobenzylaminoacetic acid]
[1]
  Ki: 7.7 µM
[2]; value of the abstract, read-out: Ki human alanyl aminopeptidase
  Ki: 0.102 µM
[2]; [6]
  Ki: 0.1 µM
[2]
  Activity for human APN (in words): potent submicromolar activity
[3]
  Ki: 107 µM

## NC(CCc1ccccc1)P(=O)(O)CN(CC(=O)O)Cc1ccc(Br)cc1 (stereo not drawn) [6b, N-{[1-Amino-3-phenylpropyl(hydroxy)phosphoryl]methyl}-N-4-bromobenzylaminoacetic acid]
[1]
  Ki: 5.8 µM
[2]; [6]
  Ki: 0.13 µM
[2]
  Activity for human APN (in words): potent submicromolar activity
[3]
  Ki: 168 µM

## NC(CCc1ccccc1)P(=O)(O)CN(CC(=O)O)Cc1ccc(C(=O)O)cc1 (stereo not drawn) [6c, N-{[1-Amino-3-phenylpropyl(hydroxy)phosphoryl]methyl}-N-4-carboxybenzylaminoacetic acid]
[1]
  Ki: 34 µM
[2]; [6]
  Ki: 1.4 µM
[3]
  Ki: 27 µM

## NC(CCc1ccccc1)P(=O)(O)CN(CC(=O)O)Cc1ccc([N+](=O)[O-])cc1 (stereo not drawn) [6d, N-{[1-Amino-3-phenylpropyl(hydroxy)phosphoryl]methyl}-N-4-nitrobenzylaminoacetic acid]
[1]
  Ki: 17 µM
[2]; [6]
  Ki: 0.24 µM
[2]
  Activity for human APN (in words): potent submicromolar activity
[3]
  Ki: 53 µM

## NC(CCc1ccccc1)P(=O)(O)CNCC(=O)O (stereo not drawn) [6g, N-{[1-Amino-3-phenylpropyl(hydroxy)phosphoryl]methyl}aminoacetic acid]
[1]
  Ki: 63 µM
[3]
  Ki: 29 µM

## CC(C)CC(NP(=O)(O)C(Cc1ccccc1)NC(=O)OCc1ccccc1)C(=O)NC(C)C(=O)O (stereo not drawn) [Cbz-PheP[NH]Leu-Ala-OH]
thermolysin
  Ki thermolysin (in words): picomolar range

## NC(CCc1ccccc1)P(=O)(O)CN(CC(=O)O)Cc1ccccc1 (stereo not drawn) [compound 1]
[4]
  Ki: 3 µM
[5]
  Ki: 52 µM
